System: One-year old yellow perch
Assay: yellow perch gill structure after three weeks exposure
Type: in vivo
Settings: added to extract solution
From the text: In an attempt to establish a causative link with chemical constituents of test pond water caps, laboratory tests examined the effect of exposure to a naphthenic acid extract from fresh WIP MFT release water on perch gill structure. […] Sulphate and naphthenic acids comprise two of the main constituents of concern in capping water and may act in concert to induce gill damage. The resulting reduced gill surface area likely led to restricted transport of both naphthenic acids and oxygen into the perch body. […] The gill aneurysms presumably occur because the outer layer of the gill has been damaged.

O=S(=O)([O-])[O-].[Na+].[Na+] [sodium sulphate]
effect of addition to the naphthenic acid extract solution on gill toxicity: exacerbated the expression of toxicity

— US20170057838A1, “WATER CAPPING OF TAILINGS” (priority 2015, published 2017)
